Experimental data taken from patent publication US6197225A, “Chromene compound” (Tokuyama Corporation, priority 1997, dated 2001).

Columns and labels:
[1] = prior-art compound, placed in a dark place after color development; cited from earlier work
[2] = Photochromic properties of cast polymer (2 mm thick) under xenon lamp irradiation for 120 seconds; format: physicochemical; details: single chromene compound 0.04% by weight in polymer, 20° C., Table 5; for Color density ε(120)-ε(0): 120 seconds
Method: 0.04% by weight of the chromene compound obtained in Example 1 was added to 70 parts of 4G, 15 parts of 3G, 10 parts of GMA, 5 parts of HEMA and 1 part of perbutyl ND, and was mixed together to a sufficient degree. The mixture solution was poured into a mold constituted by a glass plate and a gasket of an ethylene/vinyl acetate copolymer, and was cast-polymerized. By using an air furnace, the polymerization was conducted in a manner that the temperature was gradually raised from 30° C. to 90° C. over a period of 18 hours, and was held at 90° C. for 2 hours. After the polymerization, the polymer was taken out from the glass mold.
By using a xenon lamp, L-2480 (300 W) SHL-100, manufactured by Hamamatsu Photonics Co., the obtained polymer (2 mm thick) was irradiated with a beam of an intensity of 365 nm=2.4 mW/cm^2 and 245 nm=24 μW/cm^2 on the surface of the polymer for 120 seconds through an aero-mass filter (manufactured by Corning Co.) at 20° C.±1° C. to develop color and to measure the photochromic properties which were expressed in the following manner.
1 Maximum absorption wavelength (λmax): λmax of the polymer after it has developed color was found by using a spectrophotometer (instantaneous multi-channel photo-detector, MCPD1000) manufactured by Otsuka Denshi Kogyo Co.
2 Initial color ( ε(0)): Absorbency of the polymer in a non-irradiated state at a wavelength same as the maximum absorption wavelength of when it is irradiated with light.
3 Color density (-)=ε(120)-ε(0). ε(120): Absorbency of the polymer at a maximum absorption wavelength after it was irradiated for 120 seconds under the above-mentioned conditions.
4 Color-developing sensitivity (-/min.)=Saturated color density/xenon irradiation time.
Rate of increase in the color density per a unit time until the color density is saturated.
5 Color fading rate [t1/2 (min.)]=time required until the absorbency of the polymer drops down to one-half of [ε(120)-ε(0)] after irradiated for 120 seconds.
(§1) Photochromic polymers were prepared in the same manner as in Example 42 but using the chromene compounds obtained in Examples 2 to 41, and their maximum absorption wavelengths, color densities, fading rates, changes in the coloring degrees and durabilitys were measured.
(§2) For the purpose of comparison, furthermore, the compounds represented by the following formulas (a), (b), (c), (d), (e) and (f) were measured for their maximum absorption wavelengths, color densities, fading rates, changes in the coloring degrees and durabilitys.
(§3) The procedure was carried out in the same manner as in Example 42 but using 100 parts of AC1 and 133 parts of BC1, the sum of the amounts of AC1 and BC1 being 0.04% by weight. The obtained photochromic polymer was measured for its maximum absorption wavelength, initial color, color density, color-developing sensitivity, fading rate, durability and change in the coloring degree.
(§4) The procedure was carried out in the same manner as in Example 83 but using the known chromene compounds shown in Table 6 instead of the chromene compound used in Example 83. […]

[3] = Aging promotion testing: sunlight 30 min / fading one hour cycles, 10 days (durability, coloring degree); format: physicochemical; details: single chromene compound in polymer, 10 days aging, Table 5; for Change in the coloring degree ΔYI: YI(10)-YI(0)
Method: In order to promote the aging, furthermore, the following testing was conducted. That is, the obtained photochromic polymer was irradiated with sunlight for 30 minutes to develop color, and its color was permitted to fade for one hour in the light of a fluorescent lamp. This cycle was repeated three times a day for a total of 10 days.
The photochromic properties before and after aged were evaluated by evaluating the color densities before and after aged. The initial color density (T0) and the color density (T30) ten days after the aging promotion testing were measured, and the durability was expressed as described below.
Furthermore, the coloring degrees of before developing color were measured before and after aged by using a color difference meter (SM-4) manufactured by Suga Shikenki Co.
7 Coloring degree before being aged=YI(0).
8 Change in the coloring degree (ΔYI)=YI(10)-YI(0)
YI(10): coloring degree after aged
as §1, §2, §3, §4
The obtained polymer (2 mm thick) was caused to develop color outdoors, and tones of the developed color were observed by eyes 30 seconds and 15 minutes after it was brought to the outdoors, and uniformity in the step of developing color was evaluated. […] Furthermore, the aging promoting testing was conducted in the same manner as in Example 42 to find a coloring degree (YI(0)) before aged and a change in the coloring degree (ΔY).

In the case of `C1=CC2(CC3CCC2C3)Oc2c1ccc1ccccc21` (stereo not drawn) [(A)], the “fading rate (in words)” value [1] is given as “slow fading rate”.
With `C1=CC2(Oc3c1ccc1ccccc31)C1CCCC2CCC1` (stereo not drawn) [d, reference compound] the “Fading rate t1/2” value [2] was 11 min, the “Maximum absorption wavelength λmax” value [2] was 452 nm and the “Color density ε(120)-ε(0)” value [2] was 1.0. For the same molecule, the “Change in the coloring degree ΔYI” value [3] was 1.5 and the “Light resistance (durability)” value [3] was 98%.
With `CCCc1cc2c(CC)cc(OCC)cc2c2c1C=CC(c1ccc(OC)cc1)(c1cccs1)O2` (stereo not drawn) [Compound 40] the “Fading rate t1/2” value [2] was 5.2 min, the “Maximum absorption wavelength λmax” value [2] was 524 nm and the “Color density ε(120)-ε(0)” value [2] was 0.9. For the same molecule, the “Change in the coloring degree ΔYI” value [3] was 2.7 and the “Light resistance (durability)” value [3] was 96%.
For `Cc1cc2ccccc2c2c1C=CC(c1ccccc1)(c1ccccc1)O2` [c, reference compound], the “Fading rate t1/2” value [2] was 20 min, the “Maximum absorption wavelength λmax” value [2] was 484 nm and the “Color density ε(120)-ε(0)” value [2] was 1.3. For the same molecule, the “Change in the coloring degree ΔYI” value [3] was 2.4 and the “Light resistance (durability)” value [3] was 96%.
For `Cc1cc2ccccc2c2c1C=CC(c1ccccc1)(c1ccccc1)O2` [(C)], the “fading rate (in words)” value [1] is listed as “a fading rate nearly the same as that of the above-mentioned compound (A)”.
For `COc1ccc(C2(c3ccc(OC(F)(F)F)cc3)C=Cc3c(C)cc4ccccc4c3O2)cc1` (stereo not drawn) [Compound 30], the “Fading rate t1/2” value [2] was 8.5 min, the “Maximum absorption wavelength λmax” value [2] was 490 nm and the “Color density ε(120)-ε(0)” value [2] was 1.1. The “Change in the coloring degree ΔYI” value [3] was 2.4 and the “Light resistance (durability)” value [3] was 97%.
With `COc1ccc2c3c(c(C(C)Cc4ccccc4)cc2c1)C=CC(c1ccccc1)(c1cccn1C)O3` (stereo not drawn) [Compound 8] the “Fading rate t1/2” value [2] was 2.2 min, the “Maximum absorption wavelength λmax” value [2] was 490 nm and the “Color density ε(120)-ε(0)” value [2] was 0.7. The “Change in the coloring degree ΔYI” value [3] was 2.0 and the “Light resistance (durability)” value [3] was 92%.
In the case of `COc1ccc(C2(c3ccc(OC)c(F)c3)C=Cc3c(C)cc4ccccc4c3O2)cc1F` [Compound 27], the “Fading rate t1/2” value [2] was 7.3 min, the “Maximum absorption wavelength λmax” value [2] was 496 nm and the “Color density ε(120)-ε(0)” value [2] was 1.1. The “Change in the coloring degree ΔYI” value [3] was 2.3 and the “Light resistance (durability)” value [3] was 99%.
For `CC(C)c1cc2ccccc2c2c1C=CC1(O2)C2CCCC1CCC2` (stereo not drawn) [Compound 21], the “Fading rate t1/2” value [2] was 1.0 min, the “Maximum absorption wavelength λmax” value [2] was 449 nm and the “Color density ε(120)-ε(0)” value [2] was 0.5. For the same molecule, the “Change in the coloring degree ΔYI” value [3] was 2.0 and the “Light resistance (durability)” value [3] was 97%.
For `COc1ccc(C2(c3ccc(OC)c(F)c3)C=Cc3c(C(C)C)cc4ccccc4c3O2)cc1F` [Compound 14], the “Fading rate t1/2” value [2] was 4.3 min, the “Maximum absorption wavelength λmax” value [2] was 492 nm and the “Color density ε(120)-ε(0)” value [2] was 0.8. For the same molecule, the “Change in the coloring degree ΔYI” value [3] was 1.3 and the “Light resistance (durability)” value [3] was 99%.
In the case of `CCCCc1cc2cccc(Br)c2c2c1C=CC(c1ccc(OC)c(F)c1)(c1ccc(OC)c(F)c1)O2` [Compound 38], the “Fading rate t1/2” value [2] was 4.8 min, the “Maximum absorption wavelength λmax” value [2] was 482 nm and the “Color density ε(120)-ε(0)” value [2] was 0.8. The “Change in the coloring degree ΔYI” value [3] was 2.8 and the “Light resistance (durability)” value [3] was 96%.
In the case of `CC(C)(C)c1cc2ccccc2c2c1C=CC(c1ccccc1)(c1cc3ccccc3s1)O2` (stereo not drawn) [Compound 11], the “Fading rate t1/2” value [2] was 3.4 min, the “Maximum absorption wavelength λmax” value [2] was 485 nm and the “Color density ε(120)-ε(0)” value [2] was 1.0. For the same molecule, the “Change in the coloring degree ΔYI” value [3] was 1.9 and the “Light resistance (durability)” value [3] was 97%.
With `CCc1cc2ccccc2c2c1C=CC(c1ccc(OC)cc1)(c1ccc(OC)cc1)O2` [Compound 28] the “Fading rate t1/2” value [2] was 5.5 min, the “Maximum absorption wavelength λmax” value [2] was 502 nm and the “Color density ε(120)-ε(0)” value [2] was 1.0. For the same molecule, the “Change in the coloring degree ΔYI” value [3] was 2.5 and the “Light resistance (durability)” value [3] was 96%.
In the case of `COc1ccc(C2(c3ccc(OC)cc3)C=Cc3c(C)cc4ccc(C)cc4c3O2)cc1` [Compound 36], the “Fading rate t1/2” value [2] was 6.0 min, the “Maximum absorption wavelength λmax” value [2] was 510 nm and the “Color density ε(120)-ε(0)” value [2] was 1.1. For the same molecule, the “Change in the coloring degree ΔYI” value [3] was 2.3 and the “Light resistance (durability)” value [3] was 98%.
In the case of `CCC(C)(CC)c1cc2ccccc2c2c1C=CC(c1ccc(OC)c(F)c1)(c1ccc(OC)c(F)c1)O2` [Compound 5], the “Fading rate t1/2” value [2] was 2.2 min, the “Maximum absorption wavelength λmax” value [2] was 465 nm and the “Color density ε(120)-ε(0)” value [2] was 0.6. The “Change in the coloring degree ΔYI” value [3] was 1.5 and the “Light resistance (durability)” value [3] was 99%.
For `COc1ccc(C2(c3ccc(OC)cc3)C=Cc3c(C)cc4cc(-c5ccccc5)ccc4c3O2)cc1` [Compound 37], the “Fading rate t1/2” value [2] was 7.2 min, the “Maximum absorption wavelength λmax” value [2] was 512 nm and the “Color density ε(120)-ε(0)” value [2] was 1.3. For the same molecule, the “Change in the coloring degree ΔYI” value [3] was 2.5 and the “Light resistance (durability)” value [3] was 97%.
